Measurements: patent US20250314644A1, “METHODS COMPRISING DETECTION OF ADP-HEPTOSE” (CHILDREN'S HOSPITAL MEDICAL CENTER, priority 2023, published 2025)

Tests used:
[1] = system: Dnmt3a^−/−; Alpk1^−/− HSCs; assay: ADP-heptose treatment of low-dose irradiated chimeric mice: donor HSC number, EdU proliferation, secondary transplant; format: in vivo, mouse
Source text: To model pre-leukemic clonal hematopoiesis, chimeric mice were generated as aas follows. Briefly, mixture of 1×10^6 whole bone marrow cells (WBM) were obtained from Poly (I:C) treated wild-type (Dnmt3a^+/+; MxCre^+, called Dnmt3a^WT) or mutant mice (Dnmt3a^f/f; MxCre^+, called Dnmt3a^KO) or double mutant mice (Dnmt3a^f/f; MxCre^+; Alpk1^KO, called Dnmt3a^KO; Alpk1^KO) (CD45.2^+), and transplanted into low-dose (2.5 Gy) irradiated recipient mice (CD45.1^+; 6-10 weeks of age). 8 weeks post-transplant, chimeric mice were treated with either water (H2O) or DSS (2.5%) for 1 week, and allowed to recover for 1 more week on water after which flow cytometry was performed on BM. In separate experiment, chimeric mice were pre-treated with broad spectrum antibiotics (ABX) for 4 weeks, and then subjected to DSS for 1 week after which flow cytometry performed on BM. In a separate set of experiment, chimeric mice were treated with either H2O or ADP-heptose (0.5 mg/kg) for 2 weeks, and flow cytometry performed after 2 more weeks on BM. In all the experiments, secondary transplantation was performed by purifying donor HSCs (CD45.2^+Lin^−Sca-1^+c-Kit^+Flk2^−CD150^+CD48^−) and transplanting 100 HSCs with 200,000 helper WBM cells (CD45.1+) into lethally irradiated (8 Gy) recipient mice (CD45.1^+), and donor chimerism in PB examined by flow cytometry.

[2] = system: Dnmt3a^−/− mice; assay: Cytokines measured in BM fluid after ADP-heptose in vivo; design: species or system mouse
Protocol: FIG. 9 depicts the effects of ADP-heptose on inflammatory cytokines and downstream signaling. (A) Heatmap of differentially expressed cytokines and chemokines as measured in the BM fluid of Dnmt3a^WT, Dnmt3a^KO, and Dnmt3a^KO; Alpk1^KO mice treated with ADP-heptose (0.5 mg/kg) in vivo. (B) Immunoblotting performed on THP1 cells untreated or treated with ADP-heptose (1 μg/ml) in combination with DMSO (−), UBE2N inhibitor at 5 μM (+), UBE2N inhibitor at 10 μM (++), IRAK1/4 inhibitor at 0.25 μM (+), and IRAK1/4 inhibitor at 0.5 μM (++) for 30 minutes. (C) Immunoblot analysis of NF-kB modulators on THP1 wildtype (WT), IRAK1KO, IRAK4KO, IRAK1/4d^KO, MyD88KO, and TRAF6^KO cells upon treatment with ADP-heptose (1 μg/ml) for 30 minutes.
Dysregulation of innate immune and inflammatory states is implicated in pre-leukemic conditions and overt leukemia by creating an inflammatory environment suppressive for normal hematopoiesis while promoting leukemic stem and progenitor cell expansion. Moreover, chronic inflammation associated with CHIP is implicated in cardiovascular disease. […] First, to determine whether ADP-heptose treatment creates an inflammatory milieu, Dnmt3a^−/− and WT mice were treated with ADP-heptose and cytokines were measured in the BM fluid.

[3] = system: MAPK signaling in Dnmt3a^−/− HSPCs; assay: Immunoblot of MAPK signaling; format: cell-based, mouse
Protocol: (A) ALPK1 and TIFA mRNA expression in Dnmt3a^WT and Dnmt3a^KO HSC from the publicly available dataset GSE98191. (B) Immunoblot analysis of HSPCs from WT, Alpk1^KO, Dnmt3a^KO, and Dnmt3a^KO; Alpk1^KO mice stimulated with indicated concentrations of ADP-heptose for 30 minutes to examine MAPK signaling.
Protein concentration was evaluated by bicinchoninic acid (BCA) assay (Pierce, Cat #23225). SDS sample buffer was added to the lysates and the proteins were separated by SDS-polyacrylamide gel electrophoresis, transferred to PVDF or nitrocellulose membranes (BIO-RAD, Cat #1620112), and analyzed by immunoblotting. […] Membranes were visualized using ECL Western Blotting Substrate (Pierce, #32106) or SuperSignal West Femto Substrate (Thermo Scientific, #34096), imaged on a BIO-RAD ChemiDoc Touch Imaging system and analyzed with Image lab software 6.0.1 (Biorad) or Image J (22930834).

Nc1ncnc2c1ncn2[C@@H]1O[C@H](COP(=O)(O)OP(=O)(O)O[C@@H]2O[C@H]([C@H](O)CO)[C@@H](O)[C@H](O)[C@@H]2O)[C@@H](O)[C@H]1O [ADP-heptose, ADP-D-glycero-β-D-manno-heptose] was tested, and the “proliferation of HSCs in vivo (EdU)” value [1] was “completely abrogated”, the “expansion and self-renewal in recipient mice” value ([1]; ADP-heptose administration) was “unable to expand nor self-renew” and the “cytokines in BM fluid (IL-1β, G-CSF, TNFα)” value [2] was “elevated expression of numerous cytokines”. For the same compound, the MAPK signaling [3] was “did not result in MAPK signaling”.
